# Measured values as given in patent US11214803B2, “Modulators of YAP1 expression” (Ionis Pharmaceuticals, Inc., priority 2019, dated 2022).
# Strand notation (5' to 3'): a small letter for the sugar, then the base; units joined by * are phosphorothioate-linked, units joined directly phosphodiester-linked; [ ] holds rarer units or linkages, { } end groups; capitals alone tell only the bases. k = constrained ethyl (cEt); [5mC] = 5-methylcytosine; d = 2'-deoxy (DNA)
# Test system: Yap1 mRNA
# Assay: Antisense inhibition of human Yap1 in A-431 cells by cEt gapmers, single dose (Example 3, RTS36584)
# Type: cell-based
# Summary of the method: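 Values are % untreated control: Yap1 mRNA by quantitative RT-PCR (RTS36584), normalized to total RNA by RiboGreen. Before RNA isolation, 5,000 A-431 cells per well were exposed ~48 h to 2,000 nM 16-mer cEt gapmer, delivered without transfection reagent.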
# [1] = Table 12, A-431 cells, 5,000 cells per well, free uptake, 2,000 nM modified oligonucleotide, approx. 48 hours, RTS36584, normalized to RIBOGREEN, Yap1 mRNA relative to untreated control cells
# [2] = Table 28, Yap1 mRNA as percent of untreated control, 3-10-3 cEt gapmers targeting SEQ ID NO.: 1, and 2
# [3] = Table 13, A-431 cells, 5,000 cells per well, free uptake, 2,000 nM modified oligonucleotide, approx. 48 hours, RTS36584, normalized to RIBOGREEN, Yap1 mRNA relative to untreated control cells
# [4] = Table 27, Yap1 mRNA by 3-10-3 cEt gapmers targeting SEQ ID NO.: 1, and 2, percent of untreated control
# [5] = Table 11, A-431 cells, 5,000 cells per well, free uptake, 2,000 nM oligonucleotide, approx. 48 hours, primer probe set RTS36584, Yap1 mRNA normalized to RIBOGREEN, percent of untreated control
# [6] = Table 8, A-431 cells, 5,000 cells per well, free uptake, 2,000 nM, approximately 48 hours, RTS36584, normalized to RIBOGREEN, Yap1 mRNA relative to untreated control cells
# [7] = Table 10, A-431 cells, 5,000 cells per well, free uptake, 2,000 nM oligonucleotide, approx. 48 hours, primer probe set RTS36584, Yap1 mRNA normalized to RIBOGREEN, percent of untreated control
# [8] = Table 26, Yap1 mRNA by 3-10-3 cEt gapmers targeting SEQ ID NO.: 1, and 2, percent of untreated control
# [9] = Table 9, A-431 cells, 5,000 cells per well, free uptake, 2,000 nM, approximately 48 hours, RTS36584, normalized to RIBOGREEN, Yap1 mRNA relative to untreated control cells
# [10] = Table 29, Yap1 mRNA as percent of untreated control, 3-10-3 cEt gapmers targeting SEQ ID NO.: 1, and 2
# [11] = Table 35, Yap1 mRNA as percent of untreated control, 3-10-3 cEt gapmers targeting SEQ ID NO: 1 and 2, single dose
substance,measurement,setting,value
958804 (antisense kA*kG*kA*dT*dA*dA*dT*d[5mC]*dA*dT*d[5mC]*d[5mC]*dT*k[5mC]*kA*kG) [Compound 958804],YAP1 (% UTC),[1],17 % UTC
1074830 (kG*kA*kG*dG*dA*dT*dA*dA*dA*dA*dT*d[5mC]*d[5mC]*kA*k[5mC]*k[5mC]; antisense) [compound 1074830],YAP1 (% UTC),[2],89 % UTC
958675 (kT*k[5mC]*k[5mC]*d[5mC]*dT*dA*dT*d[5mC]*dA*dG*d[5mC]*dT*dG*kG*kG*k[5mC]; antisense) [Compound 958675],YAP1 (% UTC),[3],112 % UTC
958774 (antisense kT*kG*k[5mC]*dT*dA*dG*dA*dT*dA*dT*d[5mC]*dG*d[5mC]*k[5mC]*kA*kA) [Compound 958774],YAP1 (% UTC),[1],33 % UTC
1075661 (antisense kG*kA*kA*dT*dA*dG*dG*dA*dT*dA*d[5mC]*dA*dA*kG*k[5mC]*kA) [compound 1075661],YAP1 (% UTC),[4],74 % UTC
958793 (antisense k[5mC]*k[5mC]*kG*d[5mC]*dA*dT*dT*dG*d[5mC]*d[5mC]*dT*dA*dA*kG*kA*kG) [Compound 958793],YAP1 (% UTC),[5],9 % UTC
958383 (antisense k[5mC]*kT*kT*d[5mC]*d[5mC]*dT*d[5mC]*dT*dG*d[5mC]*dG*d[5mC]*dG*k[5mC]*k[5mC]*k[5mC]) [Compound 958383],YAP1 (% UTC),[6],96 % UTC
958379 (antisense kG*k[5mC]*kG*d[5mC]*d[5mC]*d[5mC]*dG*d[5mC]*d[5mC]*d[5mC]*dG*d[5mC]*dA*k[5mC]*k[5mC]*kG) [Compound 958379],YAP1 (% UTC),[6],124 % UTC
958787 (antisense kT*kG*kG*dG*d[5mC]*dA*dA*dA*dG*dT*dT*d[5mC]*d[5mC]*kT*k[5mC]*kT) [Compound 958787],YAP1 (% UTC),[7],67 % UTC
1074733 (kG*k[5mC]*k[5mC]*dA*dG*dG*dT*dA*dT*d[5mC]*dA*d[5mC]*dA*kG*kT*kA; antisense) [compound 1074733],YAP1 (% UTC),[4],47 % UTC
958752 (antisense kG*kA*kA*dT*dT*dT*dT*dT*dA*dG*dT*d[5mC]*d[5mC]*kA*kG*kT) [Compound 958752],YAP1 (% UTC),[7],2 % UTC
958568 (kT*kA*kT*dG*dA*dG*dT*dG*dA*dT*d[5mC]*dA*dA*k[5mC]*k[5mC]*kT; antisense) [Compound 958568],YAP1 (% UTC),[5],5 % UTC
1076364 (antisense k[5mC]*k[5mC]*kA*dT*dA*dA*dA*dA*dG*dT*d[5mC]*d[5mC]*dA*k[5mC]*kT*kA) [compound 1076364],YAP1 (% UTC),[8],30 % UTC
1075150 (kA*kG*k[5mC]*dG*dG*dA*dA*dA*dA*dA*dA*d[5mC]*dA*k[5mC]*k[5mC]*kT; antisense) [compound 1075150],YAP1 (% UTC),[2],35 % UTC
958681 (kA*kA*kT*dT*dA*dA*d[5mC]*dA*d[5mC]*d[5mC]*dT*dG*dA*kG*k[5mC]*kT; antisense) [Compound 958681],YAP1 (% UTC),[9],84 % UTC
958656 (kA*k[5mC]*kG*d[5mC]*dA*dA*dT*d[5mC]*dT*dG*dT*dG*dA*kT*k[5mC]*k[5mC]; antisense) [Compound 958656],YAP1 (% UTC),[9],48 % UTC
1075597 (antisense kA*kT*kT*dA*dA*d[5mC]*dA*dT*dT*dT*dG*d[5mC]*d[5mC]*k[5mC]*kG*k[5mC]) [compound 1075597],YAP1 (% UTC),[4],47 % UTC
1074476 (kT*kT*k[5mC]*d[5mC]*dG*dA*d[5mC]*dA*dA*dA*dA*d[5mC]*d[5mC]*kA*kA*k[5mC]; antisense) [compound 1074476],YAP1 (% UTC),[8],18 % UTC
1075630 (antisense kT*kA*kT*dA*dA*d[5mC]*d[5mC]*dA*dA*dA*dT*dG*d[5mC]*k[5mC]*kG*k[5mC]) [compound 1075630],YAP1 (% UTC),[2],60 % UTC
958612 (antisense kA*k[5mC]*k[5mC]*dT*dA*dA*d[5mC]*dA*dT*dA*dT*dG*dA*kG*k[5mC]*kA) [Compound 958612],YAP1 (% UTC),[7],18 % UTC
1076500 (k[5mC]*kA*kA*dT*dT*dA*dA*dG*dA*dT*d[5mC]*dA*dA*k[5mC]*kA*kT; antisense) [compound 1076500],YAP1 (% UTC),"Table 34, Yap1 mRNA as percent of untreated control, 3-10-3 cEt gapmers targeting SEQ ID NO: 1 and 2, single dose",99 % UTC
958607 (antisense k[5mC]*kA*kA*d[5mC]*dA*dT*dG*d[5mC]*dT*dT*dG*d[5mC]*dG*kA*kG*kG) [Compound 958607],YAP1 (% UTC),[7],11 % UTC
1076239 (kG*kT*kT*dT*dA*dA*dA*dA*dA*dA*dA*dA*d[5mC]*kG*kG*kG; antisense) [compound 1076239],YAP1 (% UTC),[10],75 % UTC
958488 (kA*kG*kG*dA*dA*dT*dG*dG*d[5mC]*dA*dT*d[5mC]*d[5mC]*kA*kT*k[5mC]; antisense) [Compound 958488],YAP1 (% UTC),[5],41 % UTC
958672 (kG*kA*kA*d[5mC]*dT*dT*dA*dG*dT*dT*d[5mC]*d[5mC]*d[5mC]*kT*kT*k[5mC]; antisense) [Compound 958672],YAP1 (% UTC),[7],67 % UTC
1075854 (k[5mC]*kT*kT*dA*dT*dA*dA*dT*dA*dG*dA*dG*d[5mC]*kT*kA*kA; antisense) [compound 1075854],YAP1 (% UTC),[2],52 % UTC
958618 (antisense kA*kG*k[5mC]*d[5mC]*dA*dA*dG*dA*dG*dG*dT*dG*dG*kT*k[5mC]*kT) [Compound 958618],YAP1 (% UTC),[5],36 % UTC
1075148 (k[5mC]*kG*kG*dA*dA*dA*dA*dA*dA*d[5mC]*dA*d[5mC]*d[5mC]*kT*kA*kG; antisense) [compound 1075148],YAP1 (% UTC),[8],66 % UTC
1076429 (k[5mC]*kA*kT*dT*dA*d[5mC]*dA*dA*dG*d[5mC]*dA*dT*dA*kG*kG*k[5mC]; antisense) [compound 1076429],YAP1 (% UTC),[4],26 % UTC
1075310 (antisense kG*kT*kA*dA*dT*dT*dA*dA*dA*d[5mC]*dG*dA*dA*kA*k[5mC]*kA) [compound 1075310],YAP1 (% UTC),[2],84 % UTC
1074223 (antisense kG*kA*kA*dA*d[5mC]*dA*dG*d[5mC]*dT*d[5mC]*d[5mC]*d[5mC]*dA*kA*k[5mC]*kT) [compound 1074223],YAP1 (% UTC),[10],48 % UTC
958717 (antisense kA*kA*kT*dA*dA*dT*dA*dT*dA*dG*d[5mC]*dT*dT*kA*k[5mC]*kG) [Compound 958717],YAP1 (% UTC),[7],11 % UTC
958693 (antisense kG*kT*kG*dG*dT*dG*dT*d[5mC]*dT*d[5mC]*dA*d[5mC]*dA*kG*kG*k[5mC]) [Compound 958693],YAP1 (% UTC),[5],99 % UTC
958648 (kG*kA*kA*dT*dA*d[5mC]*dT*dG*dA*dG*dT*d[5mC]*dA*kG*kG*kA; antisense) [Compound 958648],YAP1 (% UTC),[5],7 % UTC
1074956 (antisense kA*k[5mC]*k[5mC]*d[5mC]*dG*dG*dG*dT*dT*dT*dT*dT*dG*kT*k[5mC]*kA) [compound 1074956],YAP1 (% UTC),[8],104 % UTC
958418 (antisense kA*kG*kA*dG*d[5mC]*d[5mC]*dT*dA*d[5mC]*d[5mC]*dT*dG*dA*k[5mC]*kA*kT) [Compound 958418],YAP1 (% UTC),[6],47 % UTC
1076469 (kG*kT*kA*dA*dA*dA*dG*dG*dG*dA*dA*d[5mC]*dT*kA*kA*kG; antisense) [compound 1076469],YAP1 (% UTC),[11],69 % UTC
1074997 (antisense kG*k[5mC]*k[5mC]*dG*d[5mC]*dG*dA*dG*dG*dA*dA*dA*dA*kT*kA*kA) [compound 1074997],YAP1 (% UTC),[11],119 % UTC
958805 (k[5mC]*kA*kA*dG*dA*dT*dA*dA*dT*d[5mC]*dA*dT*d[5mC]*k[5mC]*kT*k[5mC]; antisense) [Compound 958805],YAP1 (% UTC),[3],6 % UTC
1075340 (antisense k[5mC]*k[5mC]*k[5mC]*dG*dA*dA*d[5mC]*dA*d[5mC]*d[5mC]*d[5mC]*dA*dA*kA*kA*kA) [compound 1075340],YAP1 (% UTC),[8],103 % UTC
958817 (kT*kG*k[5mC]*d[5mC]*dA*dG*dG*dT*dA*dA*dG*d[5mC]*d[5mC]*kA*k[5mC]*kA; antisense) [Compound 958817],YAP1 (% UTC),[7],30 % UTC
958579 (kA*kT*k[5mC]*dT*dT*dA*dA*dT*d[5mC]*dT*dG*dT*dG*kG*k[5mC]*kT; antisense) [Compound 958579],YAP1 (% UTC),[1],4 % UTC
1076501 (k[5mC]*kA*kT*dA*dA*d[5mC]*dA*d[5mC]*dT*dT*dA*dA*dG*kG*kT*kG; antisense) [compound 1076501],YAP1 (% UTC),[11],97 % UTC
